One data set deals with Swiss mice. Put plainly: Simple rotary bar test (dose at which 50% of the animals drop). Conditions: Mus musculus, sc; Swiss mice, subcutaneous, dose at which 50% of the animals drop; read-out: ED50. Type of data set: in vivo. As for the experimental part: In this example, the properties of compounds 1 to 5 and 8 to 11 are tested on Swiss mice.
Different doses of the compounds to be tested are administered subcutaneously to the mice and the latter are then placed in batches of 10 on a rotary bar, being separated from one another by separating disks. This bar is made from scraped wood, has a diameter of 3 cm and is moved horizontally with a uniform circular movement about its axis at a speed of 10 rpm.
Determination takes place of the ED50, which is the dose at which 50% of the animals drop, the dose being expressed in mg/kg.

Data set [1] has as its system synaptosomal striatal (^3 H)DA capture. Put plainly: Inhibition test of the synaptosomal striatal sample (capture) of (^3 H)DA. Type of data set: biochemical, Wistar rats. Conditions: for IC50: rat striatal synaptosomes, 5 nM (^3 H)DA, 5 min at 30° C., pH 7.4, read-out: ^3 HDA IC50; for ^3 HDA/^3 H-TCP: ratio of IC50. As for the experimental part:
This test is carried out according to the method used by Vignon and Lazdunski operating in the following way. Wistar rats weighing 200 to 250 g are killed by cervical dislocation. Their brains are rapidly removed and the striae dissected on ice. The striae are then homogenized with a Teflon glass Potter homogenizer in 50 volumes of tris HCl 10 mM buffer containing 0.32M of sucrose at pH 7.4 and they are centrifuged at 1000 g for 10 min. The supernatants are further centrifuged at 10000 g for 20 min. The resulting deposits P2 containing the crude synaptosomes are used without supplementary purification.
The synaptosomes are balanced with the compound to be tested for 30 min at 30° C. in the Ringer medium (mM: 140 NaCl, 5 KCl, 2.6 CaCl2, 1.3 MgSO4, 10 tris-HCl, pH=7.4)+200 μM of pargyline. This is followed by the addition of (^3 H)DA labelled dopamine at a final concentration of 5 nM for 5 min at 30° C. and sampling is interrupted by filtration of the incubate (150 μl) on GF/B filters. The non-specific sample is measured at 4° C. in parallel incubations and is deducted from the total sample at 30° C. The IC50 is the compound concentration preventing 50% of the specific capture compared with the control in the absence of an inhibitor.

Data set [2] has as its target cerebral cholinergic muscarinic receptor. Type of data set: binding, rat. Conditions: for IC50: rat brain homogenate, read-out: ^3 HQNB IC50; for ^3 HQNB/^3 HTCP: ratio of IC50.
For another data set, the target named is T1, receptor of the opiates (Rattus norvegicus, UniProt P33535).
T1 construct: variable concentrations of the tested compound and a rat brain homogenate; from tissue; host or cells: rat brain homogenate
Put plainly: Competition test with ^3 H-DHM for the receptor of the opiates. The data set is classed as binding. The conditions noted are these: for IC50: rat brain homogenate, read-out: ^3 HDHM IC50. Here is the method:
In this test, a fixed concentration of ^3 H-DHM labelled morphine was incubated in the presence of variable concentrations of the tested compound and a rat brain homogenate. The concentration of the compound preventing the fixing of 50% of ^3 H-DHM (IC50) is a measure of the affinity of the compound for the receptor of the opiates. The latter also gives the results obtained with PCP and TCP, as well as the ratios H^3 DA/^3 H-TCP, ^3 HQNB/^3 H-TCP and ^3 HDHM/^3 HTCP obtained with the different tested compounds.

In data set [3] the test system is cortical and hippocampal neurons. Put plainly: In vitro neuron culture survival after 2 months, count of neurons (Example 23). Type of data set: cell-based, rat. Conditions: for number of neurons which survived after 2 months culturing: single dose at start of third week, TCP 2.5 and 20, compound 9 and MK801 2.5 and 5 μmole/l, control 50 neurons/mm^2. As for the experimental part:
This example also illustrates the effect of the arylcyclohexylamines according to the invention on the in vitro neuron culture survival. As in example 21, cortical and hippocampal neuron cultures are prepared. At the start of the third culturing week, the cells are treated with a single dose of the compound to be tested and culturing is continued for two months. At the end of this period, the cells which were fixed and dyed to reveal the specific enolase of the neurons are subject to counts in order to determine the quantity of cells per surface unit.
The results obtained are given in FIG. 1, which is a histogram indicating the number of cells/mm^2 which survived after 2 months culturing.
The results are given for the control, i.e. for untreated cultures, cultures treated with 2.5 and 20 μmole/l of TCP, cultures treated by compound no. 9 at concentrations of 2.5 and 5 μmole/l and cultures treated by compound MK801 at concentrations of 2.5 and 5 μmole/l. Compound MK801, which is known to have a neuroprotection activity, is (+)-methyl-5-dihydro-10,11(5H)dibenzo(A,D) cyclohepteneimine-5,10 of formula: [drawing 38] From FIG. 1 it can be seen that the control cultures, after surviving for 2 months, on average contain 50 neurons/mm^2. The treated cultures, no matter what the compound and dose used, contain more than 500 neurons/mm^2.

The test system of another data set is Purkinje cells. Put plainly: Cerebral aging in mice, histology of the cerebellum. The data set is classed as in vivo. As for the experimental part: (§1) This example illustrates the effect of arylcyclohexylamines on cerebral aging. No matter what the cause of the cerebral aging (vascular or degenerative), it leads to a neuronal loss at the cerebral cortex, the hippocampas and to a lesser extent the cerebellum. This cellular loss can be quantified by simple histological methods and evaluated on a larger scale by means of semi-automatic image analysis methods.
(§2) In this example 6 mice aged 23 months by intraperitonealy injecting 3 of them with 5 mg/kg of TCP in the physiological solute at the 23rd, 24th and 25th months and 3 other mice were intraperitonealy injected with the physiological solute only. At the 26th month, all the mice were sacrificed by intracardial perfusion of a 5% glutaraldehyde solution, the brains were cut up with the vibratone and the sections dyed by the NISSL method.
(§3) The results obtained are given in FIGS. 2 to 5, which are sections of the brain and the cerebellum of the treated mice and the untreated control mice.

Another data set has as its system site of PCP. Put plainly: Affinity for the PCP site, competition with (^3 H)PCP on rat brain homogenates. The data set is classed as binding. Conditions: rat brain homogenate, pH 7.7, 25° C., 1 nmole tritiated ligand.
Another data set concerns site of TCP. Put plainly: Affinity for the TCP site, competition with (^3 H)TCP on rat brain homogenates. Type of data set: binding. Conditions: rat brain homogenate, pH 7.7, 25° C., 1 nmole tritiated ligand; read-out: ^3 HTCP IC50.
The subject of data set [4] is pyramidal cells Ca3 of Ammon's horn. Put plainly: Cerebral aging in mice, histology of the hippocampus. The data set is classed as in vivo. Conditions: 5 mg/kg intraperitoneal at 23rd, 24th and 25th months; 26th month. As for the experimental part:
as §1, §2, §3

Data set [5] is described as follows: Subcutaneous LD50 in the rat. Conditions: in vivo, sc.

Entries after “also recorded” stand apart in the source; their conditions may differ.

T1 sequence (P33535 whole entry): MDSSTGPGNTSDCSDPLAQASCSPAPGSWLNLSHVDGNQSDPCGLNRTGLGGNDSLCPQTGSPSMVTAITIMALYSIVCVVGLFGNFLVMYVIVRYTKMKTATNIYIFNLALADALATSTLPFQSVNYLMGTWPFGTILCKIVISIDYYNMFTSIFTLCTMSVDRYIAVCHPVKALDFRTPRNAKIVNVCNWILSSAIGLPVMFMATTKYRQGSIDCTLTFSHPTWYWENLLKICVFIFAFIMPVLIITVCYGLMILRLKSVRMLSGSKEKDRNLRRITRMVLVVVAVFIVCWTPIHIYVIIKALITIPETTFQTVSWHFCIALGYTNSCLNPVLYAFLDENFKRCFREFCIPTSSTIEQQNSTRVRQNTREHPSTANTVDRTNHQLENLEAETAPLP

As usually defined, the ED50 is the midpoint of the dose-response relation. As a reminder, the IC50 is the concentration that inhibits the measured activity by half. With `C[C@@H]1CCCC[C@]1(c1cccs1)N1CCCCC1` (relative stereo) [compound 9, c-methyl-2-r-(piperidino-1)-1 (thienyl-2)-1 cyclohexane], the ED50 in the data set on Swiss mice came to 3.5 mg/kg. Further, the results for the IC50 (in data set [1]; in [2]; on receptor of the opiates) were 7.9 µM, 12 µM and 5 µM, respectively. In addition, the “^3 HDA/^3 H-TCP” value in data set [1] amounted to 415. Also, the “neuron survival, comparison in words” value in data set [3] (compound 9 at 5 μmole/liter, 2 months culturing) was “comparable result to that of TCP at 20 μmole/l and that of MK801 at 5 μmole/l; also recorded: effectiveness equal to that of the reference compound MK801”. Also, the “number of neurons which survived after 2 months culturing” value in [3] is recorded as “more than 500 neurons/mm^2”. Further, in the data set on Purkinje cells (cerebellum and hippocampus, compared with TCP), the “cerebral aging experiment repeated in place of TCP” value is recorded as “equivalent results were obtained”.

As for `c1csc(C2(N3CCCCC3)CCCCC2)c1` [TCP, ((2-thienyl)-1 cyclohexyl)-N-piperidine, reference compound], the ED50 in the data set with Swiss mice is 2.3 mg/kg. In addition, the IC50 is 0.026 µM with site of PCP; 0.063 µM in the data set on site of TCP; 1.6 µM in data set [1]; 21 µM in data set [2]; 11 µM on receptor of the opiates. In addition, in data set [1], the “^3 HDA/^3 H-TCP” value was 25.39. Further, in data set [2], the “^3 HQNB/^3 HTCP” value worked out at 333. The “^3 HDHM/^3 HTCP” value on receptor of the opiates (ratio of IC50) was 74.6. In data set [3], the “number of neurons which survived after 2 months culturing” value was “more than 500 neurons/mm^2”. Besides, in the data set with Purkinje cells (5 mg/kg intraperitoneal at 23rd, 24th and 25th months, 26th month), the “rarefication of the Purkinje cells at the cerebellum versus untreated” value is recorded as “much less significant”. The “rarefaction of the pyramidal cells Ca3 of Ammon's horn versus untreated” value in [4] is on record as “much less marked”.

One may read the LD50 as the dose expected to kill half of the subjects tested. `OCC1CCCN(C2(c3cccs3)CCCCC2)C1` (stereo not drawn) [compound 3, [(hydroxymethyl-3piperidino)-1]-1 (thienyl-2)-1 cyclohexane]: the 50% effective dose (ED50) in the data set on Swiss mice was found to be 0.68 mg/kg. Also, in the data set on site of PCP, the IC50 was determined as 0.7 µM. In addition, in data set [2], the IC50 was determined as 90 µM and the “^3 HQNB/^3 HTCP” value came out at 128. In data set [5], this compound had an LD50 above 60 mg/kg.

`OCC1CCCN(C2(c3ccccc3)CCCCC2)C1` (stereo not drawn) [compound 4, [(hydroxymethyl-3piperidino)-1]-1phenyl-1 cyclohexane]: the ED50 in the data set with Swiss mice came out at 1.8 mg/kg. Besides, in the data set with site of PCP, the IC50 worked out at 1 µM. Moreover, in data set [2], the IC50 amounted to 100 µM and the “^3 HQNB/^3 HTCP” value came out at 100. In data set [5], the LD50 is above 60 mg/kg.

These data come from US5179109A (priority 1988, dated 1993).
